Experimental data reported in patent US20250353891A1 (MEDIMMUNE LIMITED, priority 2022, published 2025).
Starred links: 1 amine or outer side, 2 acyl side, 3 side chain; linkers in the order of their positions; H or OH if unused. Non-standard residues stand in square brackets, D forms with d. Residues, ends and D or L forms follow the SMILES beside them. Groups on a side chain read outwards from the residue. *: point of attachment. C20 diacid = O=C(O)CCCCCCCCCCCCCCCCCCC(=O)*; C18 diacid = O=C(O)CCCCCCCCCCCCCCCCC(=O)*; γGlu = O=C(O)[C@H](CCC(=O)[*:2])N[*:1]; αMeF = C[C@](N)(Cc1ccccc1)C(=O)O; AEEA = NCCOCCOCC(=O)O; Aib = CC(C)(N)C(=O)O

How the values were obtained:
[1] = target: human GLP-1 receptor (hGLP-1R) (Homo sapiens, UniProt P43220); assay: cAMP production (HTRF) in CHO cells expressing hGLP-1R; format: cell-based; parameters: expressed in transfected cells; details: for EC50: Table 6, peptides modified at position 17, cAMP in CHO hGLP-1R cells, geometric mean, read-out: hGLP-1R EC50; for % Relative Potency Ratio: Table 6, % GLP-1R activity relative to GLP-1 / % GlucR activity relative to glucagon
Sequence of human GLP-1 receptor (hGLP-1R) (P43220 24-463): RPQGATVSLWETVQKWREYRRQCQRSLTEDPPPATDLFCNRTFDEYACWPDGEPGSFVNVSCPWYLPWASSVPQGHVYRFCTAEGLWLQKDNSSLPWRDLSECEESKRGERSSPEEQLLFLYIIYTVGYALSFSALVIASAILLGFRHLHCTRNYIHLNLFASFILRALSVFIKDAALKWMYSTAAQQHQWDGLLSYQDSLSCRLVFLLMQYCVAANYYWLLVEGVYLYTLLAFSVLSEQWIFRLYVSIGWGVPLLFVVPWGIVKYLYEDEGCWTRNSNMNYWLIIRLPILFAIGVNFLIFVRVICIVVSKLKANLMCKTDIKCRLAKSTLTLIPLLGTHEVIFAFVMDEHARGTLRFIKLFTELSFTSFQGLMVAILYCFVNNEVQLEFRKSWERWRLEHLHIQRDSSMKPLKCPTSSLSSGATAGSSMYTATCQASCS
Method in brief: (§1)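 Read-out: HTRF cAMP (anti-cAMP cryptate donor, cAMP-d2 acceptor in conjugate/lysis buffer), converted to % Delta F and fitted by 4-parameter logistic for EC50. Cell densities were 1×10^5 cells/mL (hGLP-1R) or 2×10^5 cells/mL (hGCGR). Stimulation lasted 30 min at room temperature.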

[2] = target: human glucagon receptor (hGCGR) (Homo sapiens, UniProt P47871); assay: cAMP production (HTRF) in CHO cells expressing hGCGR; format: cell-based; parameters: expressed in transfected cells; details: Table 6, peptides modified at position 17; cAMP in CHO hGCGR cells; geometric mean; read-out: hGluc-R EC50
Sequence of human glucagon receptor (hGCGR) (P47871 26-477): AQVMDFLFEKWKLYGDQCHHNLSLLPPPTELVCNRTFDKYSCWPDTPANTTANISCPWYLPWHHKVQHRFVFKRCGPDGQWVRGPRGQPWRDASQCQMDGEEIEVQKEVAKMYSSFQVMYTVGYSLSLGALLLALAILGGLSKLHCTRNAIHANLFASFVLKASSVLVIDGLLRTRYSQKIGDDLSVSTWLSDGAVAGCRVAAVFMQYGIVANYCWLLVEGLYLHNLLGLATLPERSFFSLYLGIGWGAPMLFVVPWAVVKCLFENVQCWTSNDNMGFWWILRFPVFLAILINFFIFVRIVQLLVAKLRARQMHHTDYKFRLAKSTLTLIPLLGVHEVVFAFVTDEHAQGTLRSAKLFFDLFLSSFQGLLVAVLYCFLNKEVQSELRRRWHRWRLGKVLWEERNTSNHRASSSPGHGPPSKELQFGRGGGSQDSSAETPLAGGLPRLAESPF
Method in brief: as §1

Structure (SMILES) | EC50 [1] [nM] | % Relative Potency Ratio [1] | EC50 [2] [nM]
CC(C)C[C@H](NC(=O)[C@H](Cc1c[nH]c2ccccc12)NC(=O)[C@H](CCC(N)=O)NC(=O)[C@@H](NC(=O)[C@H](Cc1ccccc1)NC(=O)[C@H](CC(=O)O)NC(=O)[C@H](CCCNC(=N)N)NC(=O)[C@H](C)NC(=O)[C@H](CCCNC(=N)N)NC(=O)[C@H](CCCCNC(=O)COCCOCCNC(=O)COCCOCCNC(=O)CC[C@H](NC(=O)CC[C@H](NC(=O)CCCCCCCCCCCCCCCCCCC(=O)O)C(=O)O)C(=O)O)NC(=O)[C@@H](NC(=O)[C@H](CC(=O)O)NC(=O)[C@H](CC(C)C)NC(=O)[C@](C)(Cc1ccccc1)NC(=O)[C@H](CCCCN)NC(=O)[C@H](CO)NC(=O)[C@@H](NC(=O)[C@H](CC(=O)O)NC(=O)[C@H](CO)NC(=O)[C@@H](NC(=O)[C@H](Cc1ccccc1)NC(=O)[C@@H](NC(=O)CNC(=O)[C@H](CCC(N)=O)NC(=O)C(C)(C)NC(=O)[C@@H](N)Cc1c[nH]cn1)[C@@H](C)O)[C@@H](C)O)C(C)C)[C@@H](C)O)C(C)C)C(=O)N[C@@H](CC(C)C)C(=O)N[C@@H](CCC(=O)O)C(=O)NC(C)(C)C(=O)NCC(N)=O [Peptide 458] | 0.114 | 6.7 | 0.385
CC(C)C[C@H](NC(=O)[C@H](CC(C)C)NC(=O)[C@H](Cc1c[nH]c2ccccc12)NC(=O)[C@H](CCCNC(=N)N)NC(=O)[C@@H](NC(=O)[C@H](Cc1ccccc1)NC(=O)[C@H](CC(=O)O)NC(=O)[C@H](CCC(N)=O)NC(=O)[C@H](C)NC(=O)[C@H](CCCNC(=N)N)NC(=O)[C@H](CCCCNC(=O)COCCOCCNC(=O)COCCOCCNC(=O)CC[C@H](NC(=O)CCCCCCCCCCCCCCCCC(=O)O)C(=O)O)NC(=O)[C@H](CCCCN)NC(=O)[C@H](CC(=O)O)NC(=O)[C@H](CC(C)C)NC(=O)[C@](C)(Cc1ccccc1)NC(=O)[C@H](CCCCN)NC(=O)[C@H](CO)NC(=O)[C@@H](NC(=O)[C@H](CC(=O)O)NC(=O)[C@H](CO)NC(=O)[C@@H](NC(=O)[C@H](Cc1ccccc1)NC(=O)[C@@H](NC(=O)CNC(=O)[C@H](CCC(N)=O)NC(=O)C(C)(C)NC(=O)[C@@H](N)Cc1c[nH]cn1)[C@@H](C)O)[C@@H](C)O)C(C)C)C(C)C)C(=O)N[C@@H](C)C(=O)N[C@@H](CCC(=O)O)C(N)=O [Peptide 459] (H-H[Aib]QGTFTSDVSK[αMeF]LDKK([AEEA-AEEA-γGlu-C18 diacid])RAQDFVRWLLAE-NH2) | 0.0327 | 2.2 | 0.0369
CC(C)C[C@H](NC(=O)[C@H](CC(C)C)NC(=O)[C@H](Cc1c[nH]c2ccccc12)NC(=O)[C@H](CCCNC(=N)N)NC(=O)[C@@H](NC(=O)[C@H](Cc1ccccc1)NC(=O)[C@H](CC(=O)O)NC(=O)[C@H](CCC(N)=O)NC(=O)[C@H](C)NC(=O)[C@H](CCCNC(=N)N)NC(=O)[C@H](CCCCNC(=O)COCCOCCNC(=O)COCCOCCNC(=O)CC[C@H](NC(=O)CCCCCCCCCCCCCCCCCCC(=O)O)C(=O)O)NC(=O)[C@H](CCCCN)NC(=O)[C@H](CC(=O)O)NC(=O)[C@H](CC(C)C)NC(=O)[C@](C)(Cc1ccccc1)NC(=O)[C@H](CCCCN)NC(=O)[C@H](CO)NC(=O)[C@@H](NC(=O)[C@H](CC(=O)O)NC(=O)[C@H](CO)NC(=O)[C@@H](NC(=O)[C@H](Cc1ccccc1)NC(=O)[C@@H](NC(=O)CNC(=O)[C@H](CCC(N)=O)NC(=O)C(C)(C)NC(=O)[C@@H](N)Cc1c[nH]cn1)[C@@H](C)O)[C@@H](C)O)C(C)C)C(C)C)C(=O)N[C@@H](C)C(=O)N[C@@H](CCC(=O)O)C(N)=O [Peptide 460] | 0.117 | 1.1 | 0.0665
CC(C)C[C@H](NC(=O)[C@H](CC(C)C)NC(=O)[C@H](Cc1c[nH]c2ccccc12)NC(=O)[C@H](CCC(N)=O)NC(=O)[C@@H](NC(=O)[C@H](Cc1ccccc1)NC(=O)[C@H](CC(=O)O)NC(=O)[C@H](CCCNC(=N)N)NC(=O)[C@H](C)NC(=O)[C@H](CCCNC(=N)N)NC(=O)[C@H](CCCCNC(=O)COCCOCCNC(=O)COCCOCCNC(=O)CC[C@H](NC(=O)CCCCCCCCCCCCCCCCC(=O)O)C(=O)O)NC(=O)[C@@H](NC(=O)[C@H](CC(=O)O)NC(=O)[C@H](CC(C)C)NC(=O)[C@](C)(Cc1ccccc1)NC(=O)[C@H](CCCCN)NC(=O)[C@H](CO)NC(=O)[C@@H](NC(=O)[C@H](CC(=O)O)NC(=O)[C@H](CO)NC(=O)[C@@H](NC(=O)[C@H](Cc1ccccc1)NC(=O)[C@@H](NC(=O)CNC(=O)[C@H](CCC(N)=O)NC(=O)C(C)(C)NC(=O)[C@@H](N)Cc1c[nH]cn1)[C@@H](C)O)[C@@H](C)O)C(C)C)[C@@H](C)O)C(C)C)C(=O)N[C@@H](CCC(=O)O)C(=O)N[C@@H](C)C(=O)NCC(=O)O [Peptide 462] (H-H[Aib]QGTFTSDVSK[αMeF]LDTK([AEEA-AEEA-γGlu-C18 diacid])RARDFVQWLLEAG-OH; N-terminus assumed) | 0.0395 | 4.5 | 0.0892
CC(C)C[C@H](NC(=O)[C@H](CC(=O)O)NC(=O)[C@H](CC(C)C)NC(=O)[C@](C)(Cc1ccccc1)NC(=O)[C@H](CCCCN)NC(=O)[C@H](CO)NC(=O)[C@@H](NC(=O)[C@H](CC(=O)O)NC(=O)[C@H](CO)NC(=O)[C@@H](NC(=O)[C@H](Cc1ccccc1)NC(=O)[C@@H](NC(=O)CNC(=O)[C@H](CCC(N)=O)NC(=O)C(C)(C)NC(=O)[C@@H](N)Cc1c[nH]cn1)[C@@H](C)O)[C@@H](C)O)C(C)C)C(=O)N[C@@H](CCCCNC(=O)COCCOCCNC(=O)COCCOCCNC(=O)CC[C@H](NC(=O)CC[C@H](NC(=O)CCCCCCCCCCCCCCCCC(=O)O)C(=O)O)C(=O)O)C(=O)N[C@@H](CCCNC(=N)N)C(=O)N[C@@H](C)C(=O)N[C@@H](CCC(N)=O)C(=O)N[C@@H](CC(=O)O)C(=O)N[C@@H](Cc1ccccc1)C(=O)N[C@H](C(=O)N[C@@H](CCC(N)=O)C(=O)N[C@@H](Cc1c[nH]c2ccccc12)C(=O)N[C@@H](CC(C)C)C(=O)N[C@@H](CC(C)C)C(=O)NC(C)(C)C(=O)N[C@H](C(=O)O)[C@@H](C)O)C(C)C [Peptide 465] (H-H[Aib]QGTFTSDVSK[αMeF]LDLK([AEEA-AEEA-γGlu-γGlu-C18 diacid])RAQDFVQWLL[Aib]T-OH; N-terminus assumed) | 0.485 | 1.8 | 0.436
CC(C)C[C@H](NC(=O)[C@H](Cc1c[nH]c2ccccc12)NC(=O)[C@H](CCC(N)=O)NC(=O)[C@@H](NC(=O)[C@H](Cc1ccccc1)NC(=O)[C@H](CC(=O)O)NC(=O)[C@H](CCC(N)=O)NC(=O)[C@H](C)NC(=O)[C@H](CCCNC(=N)N)NC(=O)[C@H](CCCCNC(=O)COCCOCCNC(=O)COCCOCCNC(=O)CC[C@H](NC(=O)CCCCCCCCCCCCCCCCC(=O)O)C(=O)O)NC(=O)[C@@H](NC(=O)[C@H](CC(=O)O)NC(=O)[C@H](CC(C)C)NC(=O)[C@](C)(Cc1ccccc1)NC(=O)[C@H](CCCCN)NC(=O)[C@H](CO)NC(=O)[C@@H](NC(=O)[C@H](CC(=O)O)NC(=O)[C@H](CO)NC(=O)[C@@H](NC(=O)[C@H](Cc1ccccc1)NC(=O)[C@@H](NC(=O)CNC(=O)[C@H](CCC(N)=O)NC(=O)C(C)(C)NC(=O)[C@@H](N)Cc1c[nH]cn1)[C@@H](C)O)[C@@H](C)O)C(C)C)[C@@H](C)O)C(C)C)C(=O)N[C@@H](CC(C)C)C(=O)N[C@@H](CCC(=O)O)C(=O)NC(C)(C)C(=O)NCC(N)=O [Peptide 466] (H-H[Aib]QGTFTSDVSK[αMeF]LDTK([AEEA-AEEA-γGlu-C18 diacid])RAQDFVQWLLE[Aib]G-NH2; N-terminus assumed) | 0.0356 | 7.3 | 0.131
CC(C)C[C@H](NC(=O)[C@H](Cc1c[nH]c2ccccc12)NC(=O)[C@H](CCC(N)=O)NC(=O)[C@@H](NC(=O)[C@H](Cc1ccccc1)NC(=O)[C@H](CC(=O)O)NC(=O)[C@H](CCC(N)=O)NC(=O)[C@H](C)NC(=O)[C@H](CCCNC(=N)N)NC(=O)[C@H](CCCCNC(=O)COCCOCCNC(=O)COCCOCCNC(=O)CC[C@H](NC(=O)CC[C@H](NC(=O)CCCCCCCCCCCCCCCCC(=O)O)C(=O)O)C(=O)O)NC(=O)[C@@H](NC(=O)[C@H](CC(=O)O)NC(=O)[C@H](CC(C)C)NC(=O)[C@](C)(Cc1ccccc1)NC(=O)[C@H](CCCCN)NC(=O)[C@H](CO)NC(=O)[C@@H](NC(=O)[C@H](CC(=O)O)NC(=O)[C@H](CO)NC(=O)[C@@H](NC(=O)[C@H](Cc1ccccc1)NC(=O)[C@@H](NC(=O)CNC(=O)[C@H](CCC(N)=O)NC(=O)C(C)(C)NC(=O)[C@@H](N)Cc1c[nH]cn1)[C@@H](C)O)[C@@H](C)O)C(C)C)[C@@H](C)O)C(C)C)C(=O)N[C@@H](CC(C)C)C(=O)N[C@@H](CCC(=O)O)C(=O)NC(C)(C)C(=O)NCC(N)=O [Peptide 468] | 0.0675 | 8.6 | 0.292
CC(C)C[C@H](NC(=O)[C@H](Cc1c[nH]c2ccccc12)NC(=O)[C@H](CCC(N)=O)NC(=O)[C@@H](NC(=O)[C@H](Cc1ccccc1)NC(=O)[C@H](CC(=O)O)NC(=O)[C@H](CCC(N)=O)NC(=O)[C@H](C)NC(=O)[C@H](CCCNC(=N)N)NC(=O)[C@H](CCCCNC(=O)COCCOCCNC(=O)COCCOCCNC(=O)CC[C@H](NC(=O)CC[C@H](NC(=O)CCCCCCCCCCCCCCCCCCC(=O)O)C(=O)O)C(=O)O)NC(=O)[C@@H](NC(=O)[C@H](CC(=O)O)NC(=O)[C@H](CC(C)C)NC(=O)[C@](C)(Cc1ccccc1)NC(=O)[C@H](CCCCN)NC(=O)[C@H](CO)NC(=O)[C@@H](NC(=O)[C@H](CC(=O)O)NC(=O)[C@H](CO)NC(=O)[C@@H](NC(=O)[C@H](Cc1ccccc1)NC(=O)[C@@H](NC(=O)CNC(=O)[C@H](CCC(N)=O)NC(=O)C(C)(C)NC(=O)[C@@H](N)Cc1c[nH]cn1)[C@@H](C)O)[C@@H](C)O)C(C)C)[C@@H](C)O)C(C)C)C(=O)N[C@@H](CC(C)C)C(=O)N[C@@H](CCC(=O)O)C(=O)NC(C)(C)C(=O)NCC(N)=O [Peptide 469] (H-H[Aib]QGTFTSDVSK[αMeF]LDTK([AEEA-AEEA-γGlu-γGlu-C20 diacid])RAQDFVQWLLE[Aib]G-NH2) | 0.255 | 4.2 | 0.538
